Experiments:
[1] = logP by HPLC on reverse-phase column (EEC Directive 79/831 Annex V.A8); assay type: physicochemical; conditions: HPLC-MS
Procedure: The logP values reported in the above Tables and Preparation Examples were determined according to EEC Directive 79/831 Annex V.A8 by HPLC (High Performance Liquid Chromatography) on a reverse-phase column (C18). Temperature 43° C.

[2] = test system: green peach aphid (Myzus persicae); test: Myzus test (MYZUPE spray treatment), Example 17; assay type: in vivo; conditions: application rate 100 g/ha, china cabbage leaf discs sprayed, after 6 days
Procedure: Myzus Test (MYZUPE Spray Treatment)
• Solvent: 78 parts by weight of acetone • 1.5 parts by weight of dimethylformamide • Emulsifier: 0.5 part by weight of alkylaryl polyglycol ether
To prepare an appropriate active ingredient formulation, 1 part by weight of active ingredient is mixed with the stated amounts of solvent and emulsifier, and the concentrate is diluted with emulsifier-containing water to the desired concentration. Leaf discs from china cabbage (Brassica pekinensis) infested by all stages of the green peach aphid (Myzus persicae) are sprayed with an active ingredient formulation of the desired concentration.
After 6 days, the efficacy in % is determined. 100% means that all aphids were killed; 0% means that no aphids were killed.

[3] = test system: armyworm (Spodoptera frugiperda); test: Spodoptera frugiperda test (SPODFR spray treatment), Example 15; assay type: in vivo; conditions: maize leaf discs sprayed, after 7 days
Procedure, shortened: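 Maize leaf discs sprayed with active ingredient in acetone/DMF with alkylaryl polyglycol ether emulsifier, diluted in water, then populated with caterpillars after drying. Efficacy in % after 7 days: 100% all caterpillars killed, 0% none.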

[4] = test system: mustard beetle (Phaedon cochleariae); test: Phaedon test (PHAECO spray treatment), Example 7; assay type: in vivo; conditions: application rate 20 g/ha, china cabbage leaf discs sprayed, after 7 days
Procedure: Phaedon Test (PHAECO Spray Treatment)
• Solvent: 78.0 parts by weight of acetone • 1.5 parts by weight of dimethylformamide • Emulsifier: 0.5 part by weight of alkylaryl polyglycol ether
To prepare an active ingredient formulation, 1 part by weight of active ingredient is mixed with the stated amounts of solvent and emulsifier, and the concentrate is diluted with emulsifier-containing water to the desired concentration. Leaf discs from china cabbage (Brassica pekinensis) are sprayed with an active ingredient formulation of the desired concentration and, after drying, populated with larvae of the mustard beetle (Phaedon cochleariae).
After 7 days, the efficacy in % is determined. 100% means that all beetle larvae were killed; 0% means that no beetle larvae were killed.

Boophilus microplus = Boophilus microplus test (BOOPMI injection), Example 11; assay type: in vivo; conditions: application rate 20 μg/animal, injected into abdomen, after 7 days
Procedure: Boophilus microplus Test (BOOPMI Injection) • Solvent: dimethyl sulphoxide To prepare an appropriate active ingredient formulation, 10 mg of active ingredient are mixed with 0.5 ml of solvent and the concentrate is diluted with solvent to the desired concentration. The active ingredient solution is injected into the abdomen (Boophilus microplus), and the animals are transferred to dishes and stored in a climate-controlled room. The efficacy was assessed by the number of fertile eggs laid. After 7 days, the efficacy in % is determined. 100% means that none of the ticks has laid any fertile eggs.

Row | Compound | logP [1] | efficacy in % [2] | efficacy in % ([3]; application rate 100 g/ha) | efficacy in % [4] | efficacy in % ([3]; application rate 500 g/ha) | efficacy in % (fertile eggs laid) (Boophilus microplus)
1 | CC(NC(=O)c1ccc(C=CC(=O)NC(c2cccc(C(F)(F)F)c2)C(F)(F)F)cc1Cl)c1nccs1 (mixture of isomers) [Ia-187] | HPLC-MS: logP = 3.4; mass | 80% |  |  |  | 
2 | CC(C)ONC(=O)c1ccc(/C=C/C(=O)NC(c2cccc(C(F)(F)F)c2)C(F)(F)F)cc1Cl (racemic) [Ia-194] | HPLC-MS: logP = 3.29; mass | 90% |  |  |  | 
3 | CC(C)(C#N)NC(=O)c1ccc(/C=C/C(=O)NC(c2cccc(C(F)(F)F)c2)C(F)(F)F)cc1Cl (racemic) [Ia-195] | HPLC-MS: logP = 3.34; mass | 100% | 100% |  |  | 
4 | O=C(/C=C/c1ccc(C(=O)Nc2ncccn2)c(Cl)c1)NC(c1cccc(C(F)(F)F)c1)C(F)(F)F (racemic) [Ia-197] | HPLC-MS: logP = 2.95; mass | 90% |  |  |  | 
5 | CCn1c(C(=O)NC(c2cccc(C(F)(F)F)c2)C(F)(F)F)cc2cc(C(=O)NC3CC3)c(Cl)cc21 (racemic) [Ic-26] |  | 100% | 100% |  |  | 
6 | CCNC(=O)c1ccc(/C=C/C(=O)NC(c2cccc(C(F)(F)F)c2)C(F)(F)F)cc1C(F)(F)F (stereo not drawn) [Ia-64] | HPLC-MS: logP = 3.18; mass |  |  | 100% | 83% | 
7 | COC(=O)NNC(=O)c1ccc(/C=C/C(=O)NC(c2cccc(C(F)(F)F)c2)C(F)(F)F)cc1Cl (stereo not drawn) [Ia-109] | HPLC-MS: logP = 2.72 mass |  |  | 100% |  | 
8 | CC(F)(F)CNC(=O)c1ccc(/C=C/C(=O)NC(c2cccc(C(F)(F)F)c2)C(F)(F)F)cc1Cl (stereo not drawn) [Ia-111] | HPLC-MS: logP = 3.37 mass |  |  | 100% |  | 
9 | CN(C)NC(=O)c1ccc(/C=C/C(=O)NC(c2cccc(C(F)(F)F)c2)C(F)(F)F)cc1C(F)(F)F (stereo not drawn) [Ia-131] | HPLC-MS: logP = 3.05; mass | 100% | 100% |  |  | 
10 | COC(=O)C(C)NC(=O)c1ccc(/C=C/C(=O)NC(c2cccc(C(F)(F)F)c2)C(F)(F)F)cc1C(F)(F)F (stereo not drawn) [Ia-132] | HPLC-MS: logP = 3.47; mass | 80% |  |  |  | 100%
11 | O=C(/C=C/c1ccc(C(=O)NC2CCOC2=O)c(C(F)(F)F)c1)NC(c1cccc(C(F)(F)F)c1)C(F)(F)F (stereo not drawn) [Ia-136] |  | 100% |  |  |  | 100%
12 | CC(C)NC(=O)c1ccc(/C=C/C(=O)NC(c2cccc(C(F)(F)F)c2)C(F)(F)F)cc1Cl (stereo not drawn) [Ia-150] | HPLC-MS: logP = 3.5; mass | 100% |  |  |  | 100%
13 | O=C(/C=C/c1ccc(C(=O)NCc2ncccn2)c(Cl)c1)NC(c1cccc(C(F)(F)F)c1)C(F)(F)F (stereo not drawn) [Ia-153] | HPLC-MS: logP = 2.94; mass | 100% |  |  |  | 100%
14 | CC(NC(=O)c1ccc(/C=C/C(=O)NC(c2cccc(C(F)(F)F)c2)C(F)(F)F)cc1Cl)c1ccccn1 (stereo not drawn) [Ia-154] | HPLC-MS: logP = 3.45; mass | 90% |  |  |  | 100%
15 | CC(C#N)NC(=O)c1ccc(/C=C/C(=O)NC(c2cccc(C(F)(F)F)c2)C(F)(F)F)cc1Cl (stereo not drawn) [Ia-160] | HPLC-MS: logP = 3.23; mass | 100% |  |  |  | 
16 | COCC(C)NC(=O)c1ccc(/C=C/C(=O)NC(c2cccc(C(F)(F)F)c2)C(F)(F)F)cc1Cl (stereo not drawn) [Ia-164] | HPLC-MS: logP = 3.33; mass | 100% |  |  |  | 100%
17 | O=C(/C=C/c1ccc(C(=O)Nc2ccc(Cl)cn2)c(Cl)c1)NC(c1cccc(C(F)(F)F)c1)C(F)(F)F (stereo not drawn) [Ia-168] | HPLC-MS: logP = 4.28; mass | 80% | 100% |  |  | 
18 | O=C(/C=C/c1ccc(C(=O)NCc2ccco2)c(C(F)(F)F)c1)NC(c1cccc(C(F)(F)F)c1)C(F)(F)F (stereo not drawn) [Ia-169] | HPLC-MS: logP = 3.63; mass | 100% |  |  |  | 
19 | COC(=O)N(C)NC(=O)c1ccc(/C=C/C(=O)NC(c2cccc(C(F)(F)F)c2)C(F)(F)F)cc1C(F)(F)F (stereo not drawn) [Ia-170] | HPLC-MS: logP = 3.23; mass | 100% | 83% |  |  | 
